In assay [1] the test system is w.3 AMATU Amaranthus tuberculatus, tall waterhemp, PPO resistant biotype 2 that does not contain the ΔG210 mutation. The format is in vivo. The following applies: summary of Example 3 table.
Assay [2] deals with w.2 AMATU Amaranthus tuberculatus, tall waterhemp, PPO resistant biotype 1 that does not contain the ΔG210 mutation. The format is in vivo. The following applies: summary of Example 3 table.

SMILES strings stand for the structures.

The values below come from US10897903B2, “Method for controlling PPO resistant weeds” (BASF SE, priority 2016, dated 2021).

For `C#CCN1C(=O)C(F)(F)Oc2cc(F)c(-n3c(=O)n(C)c(=S)n(C)c3=O)cc21` [I.a.35], the “activity in words on PPO resistant weed w.3” value in assay [1] is “very good activity”. In addition, the “activity in words on PPO resistant weed w.2” value in assay [2] is recorded as “very good activity”.
